Assay results: patent US8748435B2, “Pyrazolo pyrimidine derivatives” (Novartis AG, priority 2011, dated 2014)
Structures can show the parent of a compound that is named as a salt.

Tests used:
[1] = target: T1, human GPR4 (Homo sapiens (Human), UniProt P46093); assay: Human GPR4 binding assay ([3H]4 radioligand, membranes of 300.19 cells expressing human GPR4)
Description: a) Human GPR4 Binding Assay
(§1) Cells were grown in T175 flasks to a density of about 1×10^6 cells/mL in growth medium. The cells were harvested by centrifugation (3000 rpm for 30 minutes at 4° C.) and the pellet resuspended in ice cold buffer A (20 mM HEPES pH 7.8, 10 mM EDTA, 100 mM NaCl, 1 tab/40 mL protease inhibitor complete). […] The homogenate was centrifuged at 18000 rpm for 50 min at 4° C. and the membrane protein pellet resuspended in cold buffer A using the Polytron (2×20 seconds). The protein concentration is determined using the Bio Rad Protein Assay and human IgG as standard. The volume of the membrane protein suspension is adjusted to a final concentration of about 2 mg protein/mL. The suspension is then once again homogenized (Polytron) on ice at 25000 rpm for 20 seconds before being aliquoted and stored at −80° C.
(§2) Radio Ligand Binding Assay: Serial dilutions of compounds (stock in 10 mM DMSO) are prepared by first diluting the compounds in DMSO followed by a 1:50 dilution into assay buffer (10 mM HEPES, pH 8.0, 100 mM NaCl, 5 mM MgCl2, 1 mM CaCl2, 0.5% fatty acid-free BSA, 0.05% Tween-20). […] The desired amount of membranes (20 μg/well) is diluted with assay buffer. […] 100 μL of the membrane-suspension is added and the plate stirred for 60 minutes. […] The filter plate is washed 5 times with ice-cold wash buffer, dried and sealed at the bottom. Then 20 μL of Microscint 40 is added into each well and the top of the plate is sealed. Finally the plate is counted for 2 min/well in a TopCount NXT instrument (Packard Instruments). The data are analyzed using the GraphPad Prism™ software.

[2] = target: T1, human GPR4; assay: Human GPR4 binding assay with additional human serum albumin (4% HSA); details: binding assay with 4% HSA
Description: as §1, §2
In a similar manner, a binding assay with additional human serum albumin (4% HSA) has been established.

[3] = target: T1, human GPR4; assay: Cell-based assay for human GPR4 activity (pH-induced cAMP formation, HTRF, HeLa cells); details: HeLa cells stably expressing human GPR4, pH-induced cAMP
Description: b) Cell-Based Assay for Human GPR4 Activity
(§3) HeLa cells stably expressing human GPR4 were established by transfecting the cells with a construct containing the human GPR4 coding sequence. The cells were grown in Dulbecco's Modified Eagle Medium (DMEM)/HAM's tissue culture medium F12 (HAM's F12) supplemented with 10% fetal calf serum (FCS), 100 u/ml penicillin, 100 μg/ml streptomycin and 400 μg/ml G418 and 10 mM Hepes pH 8.0. pH-induced formation of cAMP was determined using the homogeneous time resolved fluorescence (HTRF) technology as provided by CisBio Inc. The cells were seeded in 384-well plates and cultured for 24 hours at 37° C., 5% CO2 before performing the assay. Medium was removed and 10 μl buffer A (Hepes buffered saline (HBS), 10 mM Hepes, pH 8, 2 mM 3-Isobutyl-1-methylxanthin (IBMX)) was added. For compound testing, buffer A with 2× concentrated compounds was used. Cells were incubated for 15 min at room temperature. 10 μl buffer B (HBS, 30 mM Hepes, specific pH) was added to reach the appropriate final pH for stimulation (see below) and incubation was continued for 15 min at room temperature. […] HBS: 130 mM NaCl, 0.9 mM NaH2 PO4, 5.4 mM KCl, 0.8 mM MgSO4, CaCl2 1.8 mM, 25 mM glucose, 10-30 mM Hepes. Adjustment of HBS buffers:
(§4) Compounds were diluted from fresh stock solutions at 10 mM in DMSO to 2 mM and then used for serial dilutions in DMSO.

[4] = target: mouse GPR4 (Mus musculus (Mouse), UniProt Q8BUD0); assay: Mouse GPR4 cAMP assay; assay type: cell-based
Description: as §3, §4
(§5) In a similar manner, assays for the mouse (m) and rat (r) GPR4 receptors have been established.

[5] = target: rat GPR4 (Rattus norvegicus (Rat), UniProt Q4KLH9); assay: Rat GPR4 cAMP assay; assay type: cell-based; details: read-out: r cAMP IC50
Description: as §3, §4, §5

[6] = target: Human H3 (Homo sapiens (Human), UniProt Q9Y5N1); assay: Human H3 binding assay (SPA, [3H]-R-alpha-Methylhistamine); details: 3 nM [3H]-R-alpha-Methylhistamine
Description: c) Human H3 Binding Assay
The Scintillation Proximity Binding Assay (SPA) assay was performed in a final volume of 50 μL per well in a 384-well polystyrene plate.
The final concentration of the radioligand was 3 nM. • 20 μL of a beads (PVT-WGA type A) and membranes mixed suspension in assay buffer, in order to get a final concentration of 10 μg/well of membranes and 200 μg/well of beads. As an example, 1471 μL membranes (Conc.: 5.1 mg/mL) and 1500 μL of bead suspension (Conc.: 100 mg/mL) are diluted to a final volume of 15 mL of assay buffer.
The plates were sealed and shaken at room temperature, then allowed to stand at room temperature for at least 1 hour. The plates were counted using a Perkin Elmer TopCount reader, each well being counted for 1 minute.

[7] = test system: CFA-induced hyperalgesia; assay: Established rat hyperalgesia model (CFA); assay type: in vivo; details: gavage
Description: f) Established Rat Hyperalgesia Model
Naïve withdrawal thresholds of both hind paws were determined by using an increasing pressure stimulus placed onto the dorsal surface of each paw using an analgesymeter. Delayed inflammatory pain was then induced by intra-plantar injection of 25 μl of complete Freund's adjuvant (CFA) into one hindpaw with the contralateral paw acting as the control. […] One hour later, paw withdrawal thresholds were re-measured on both the ipsilateral (CFA-injected) and contralateral (uninjected) paw; measurements were repeated at 3 hrs and 6 hrs post dosing. The reversal of hyperalgesia was calculated using the following formula: Reversal (%)=100×(postdose ipsilateral threshold−predose ipsilateral threshold) (naïve ipsilateral threshold−predose ipsilateral threshold).

[8] = radioligand [3H]4 (example 39), membranes of 300.19 cells expressing human GPR4

Human H3, sequence (Q9Y5N1 whole entry): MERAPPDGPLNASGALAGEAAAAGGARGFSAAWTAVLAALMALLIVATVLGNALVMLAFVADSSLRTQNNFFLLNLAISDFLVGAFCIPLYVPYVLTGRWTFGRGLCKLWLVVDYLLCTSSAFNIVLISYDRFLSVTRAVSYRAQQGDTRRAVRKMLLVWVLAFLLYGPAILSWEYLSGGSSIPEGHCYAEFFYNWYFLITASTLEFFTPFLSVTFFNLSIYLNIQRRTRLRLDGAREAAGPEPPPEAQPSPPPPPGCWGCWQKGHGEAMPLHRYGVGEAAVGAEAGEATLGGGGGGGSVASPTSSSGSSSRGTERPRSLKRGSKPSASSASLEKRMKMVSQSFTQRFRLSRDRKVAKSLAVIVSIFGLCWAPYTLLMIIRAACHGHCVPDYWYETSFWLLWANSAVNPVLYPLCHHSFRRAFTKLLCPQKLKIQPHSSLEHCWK
T1 sequence (P46093 whole entry): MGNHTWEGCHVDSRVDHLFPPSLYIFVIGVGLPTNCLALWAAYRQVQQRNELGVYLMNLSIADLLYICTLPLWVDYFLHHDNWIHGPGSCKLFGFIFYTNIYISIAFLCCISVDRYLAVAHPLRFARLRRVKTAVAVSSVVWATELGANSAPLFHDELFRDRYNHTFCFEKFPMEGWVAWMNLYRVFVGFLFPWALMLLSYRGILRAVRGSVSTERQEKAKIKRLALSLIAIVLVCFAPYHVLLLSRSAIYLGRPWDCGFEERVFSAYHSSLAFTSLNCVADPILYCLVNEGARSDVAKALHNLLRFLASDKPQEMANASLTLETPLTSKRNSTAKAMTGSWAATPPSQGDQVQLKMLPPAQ
rat GPR4, sequence (Q4KLH9 whole entry): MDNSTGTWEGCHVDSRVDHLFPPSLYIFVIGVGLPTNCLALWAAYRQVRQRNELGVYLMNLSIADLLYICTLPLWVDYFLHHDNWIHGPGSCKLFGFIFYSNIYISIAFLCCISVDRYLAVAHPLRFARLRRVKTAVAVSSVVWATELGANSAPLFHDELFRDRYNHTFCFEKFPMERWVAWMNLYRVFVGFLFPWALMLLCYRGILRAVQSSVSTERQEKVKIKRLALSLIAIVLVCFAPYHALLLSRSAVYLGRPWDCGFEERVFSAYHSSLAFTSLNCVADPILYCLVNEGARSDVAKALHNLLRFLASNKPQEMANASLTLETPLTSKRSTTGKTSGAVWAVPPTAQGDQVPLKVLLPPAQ
mouse GPR4, sequence (Q8BUD0 whole entry): as the sequence (Q4KLH9 whole entry) above, with W8G, R51H, T339S counted along it

Row | Compound | IC50 [3] | IC50 [4] | IC50 [5] | IC50 [6] | IC50 [1, 8] | further results
1 | CCc1nn2c(C)cc(C)nc2c1Cc1ccc(/C=C/C2(O)CCNCC2)cc1 [Example 1, 4-{(E)-2-[4-(2-Ethyl-5,7-dimethyl-pyrazolo[1,5-a]pyrimidin-3-ylmethyl)-phenyl]-vinyl}-piperidin-4-ol] | 37 nM | 265 nM | 931 nM | > 30000 nM | – | IC50 [1]: 45 nM; IC50 [2]: 25 nM
2 | CCc1nn2c(C)cc(C)nc2c1Cc1ccc(/C=C/CC2(O)CNC2)cc1 [Example 2, 3-{(E)-3-[4-(2-Ethyl-5,7-dimethyl-pyrazolo[1,5-a]pyrimidin-3-ylmethyl)-phenyl]-allyl}-azetidin-3-ol] | 55 nM | 632 nM | 989 nM | > 10000 nM | – | IC50 [1]: 34 nM; IC50 [2]: 52 nM
3 | CCc1nn2c(C)cc(C)nc2c1Cc1ccc(/C=C/CC2(O)CCN(C[C@@H](O)CO)CC2)cc1 [Example 6, (R)-3-(4-{(E)-3-[4-(2-Ethyl-5,7-dimethyl-pyrazolo[1,5-a]pyrimidin-3-ylmethyl)-phenyl]-allyl}-4-hydroxy-piperidin-1-yl)-propane-1,2-diol] | 19 nM | 128 nM | 491 nM | – | 24 nM | –
4 | CCc1nn2c(C)cc(C)nc2c1Cc1ccc(/C=C/CN2CCN(C(=O)CN)CC2)cc1 [Example 11, 2-Amino-1-(4-{(E)-3-[4-(2-ethyl-5,7-dimethyl-pyrazolo[1,5-a]pyrimidin-3-ylmethyl)-phenyl]-allyl}-piperazin-1-yl)-ethanone dihydrochloride] | 46 nM | 499 nM | 2790 nM | > 30000 nM | 38 nM | –
5 | CCc1nn2c(C)cc(C)nc2c1Cc1ccc(/C=C/CN2CCC(c3nnnn3C)CC2)cc1 [Example 12, 2-Ethyl-5,7-dimethyl-3-(4-{(E)-3-[4-(1-methyl-1H-tetrazol-5-yl)-piperidin-1-yl]-propenyl}-benzyl)-pyrazolo[1,5-a]pyrimidine hydrochloride] | 27 nM | 233 nM | 181 nM | > 30000 nM | 33 nM | –
6 | CCc1nn2c(C)cc(C)nc2c1Cc1ccc(C(=O)NCC2CCNCC2)cc1 [Example 20, 4-(2-Ethyl-5,7-dimethyl-pyrazolo[1,5-a]pyrimidin-3-ylmethyl)-N-piperidin-4-ylmethyl-benzamide] | 79 nM | 366 nM | 1500 nM | > 30000 nM | – | –
7 | CCc1nn2c(C)cc(C)nc2c1Cc1ccc(OCC2CCNCC2)cc1 [Example 21, 2-Ethyl-5,7-dimethyl-3-[4-(piperidin-4-ylmethoxy)-benzyl]-pyrazolo[1,5-a]pyrimidine hydrochloride] | 12 nM | 96 nM | 489 nM | 25000 nM | – | –
8 | CCc1nn2c(C)cc(C)nc2c1Cc1ccc(OCC2CCN(C(=O)[C@H]3NCC[C@H]3O)CC2)cc1 [Example 22, {4-[4-(2-Ethyl-5,7-dimethyl-pyrazolo[1,5-a]pyrimidin-3-ylmethyl)-phenoxymethyl]-piperidin-1-yl}-((2S,3R)-3-hydroxy-pyrrolidin-2-yl)-methanone] | – | 90 nM | 202 nM | > 30000 nM | 19 nM | IC50 [2]: 12 nM
9 | CCc1nn2c(C)cc(C)nc2c1Cc1ccc(OC[C@H]2CC[C@@H](NC(=O)[C@H]3NCC[C@H]3O)CC2)cc1 [Example 24, (2S,3R)-3-Hydroxy-pyrrolidine-2-carboxylic acid {4-[4-(2-ethyl-5,7-dimethyl-pyrazolo[1,5-a]pyrimidin-3-ylmethyl)-phenoxymethyl]-cyclohexyl}-amide] | 70 nM | 365 nM | 792 nM | > 30000 nM | – | IC50 [2]: 63 nM
10 | CCc1nn2c(C)cc(C)nc2c1Cc1ccc(-n2cc(CN3CCC(N)CC3)cn2)cc1 [Example 30, 1-{1-[4-(2-Ethyl-5,7-dimethyl-pyrazolo[1,5-a]pyrimidin-3-ylmethyl)-phenyl]-1H-pyrazol-4-ylmethyl}-piperidin-4-ylamine] | 29 nM | 384 nM | 497 nM | > 30000 nM | 26 nM | –
11 | CCc1nn2c(C)cc(C)nc2c1Cc1ccc(-n2cc(CN3CCN[C@@H](CO)C3)cn2)cc1 [Example 32, ((R)-4-{1-[4-(2-Ethyl-5,7-dimethyl-pyrazolo[1,5-a]pyrimidin-3-ylmethyl)-phenyl]-1H-pyrazol-4-ylmethyl}-piperazin-2-yl)-methanol] | 61 nM | 255 nM | 1330 nM | > 30000 nM | – | –
12 | CCc1nn2c(C)cc(C)nc2c1Cc1ccc(-n2cc(CN3CCNCC3)nn2)cc1 [Example 33, 2-Ethyl-5,7-dimethyl-3-[4-(4-piperazin-1-ylmethyl-[1,2,3]triazol-1-yl)-benzyl]-pyrazolo[1,5-a]pyrimidine] | 31 nM | 872 nM | 616 nM | > 10000 nM | 38 nM | –
13 | CCc1nn2c(C)cc(C)nc2c1Cc1ccc(-c2nnc(C3CCN(C(=O)CNC)CC3)o2)cc1 [Example 37, 1-(4-{5-[4-(2-Ethyl-5,7-dimethyl-pyrazolo[1,5-a]pyrimidin-3-ylmethyl)-phenyl]-[1,3,4]oxadiazol-2-yl}-piperidin-1-yl)-2-methylamino-ethanone] | 40 nM | – | – | – | – | –
14 | CCc1nc2c(C)cc(C)nc2n1Cc1ccc(/C=C/CN2CCN(C(C)C)CC2)cc1 [Example 40, 2-Ethyl-3-{4-[(E)-3-(4-isopropyl-piperazin-1-yl)-propenyl]-benzyl}-5,7-dimethyl-3H-imidazo[4,5-b]pyridine, reference compound] | – | – | – | – | – | % reversal of hyperalgesia ([7]; 3 mg/kg, 1 h): 23%; % reversal of hyperalgesia ([7]; 3 mg/kg, 3 h): 11%; % reversal of hyperalgesia ([7]; 3 mg/kg, 6 h): 0%; % reversal of hyperalgesia ([7]; 10 mg/kg, 1 h): 48%; % reversal of hyperalgesia ([7]; 10 mg/kg, 3 h): 40%; % reversal of hyperalgesia ([7]; 10 mg/kg, 6 h): 0%; % reversal of hyperalgesia ([7]; 30 mg/kg, 1 h): 55%; % reversal of hyperalgesia ([7]; 30 mg/kg, 3 h): 45%; % reversal of hyperalgesia ([7]; 30 mg/kg, 6 h): 8%
15 | O=C(O)Cc1ccccc1Nc1c(Cl)cccc1Cl [diclofenac, reference compound] | – | – | – | – | – | % reversal of hyperalgesia ([7]; 30 mg/kg, 1 h): 58%; % reversal of hyperalgesia ([7]; 30 mg/kg, 3 h): 60%; % reversal of hyperalgesia ([7]; 30 mg/kg, 6 h): 30%
